Assay results from paper PMC9232612, “A phase 1b randomised controlled trial of a glucagon-like peptide-1 and glucagon receptor dual agonist IBI362 (LY3305677) in Chinese patients with type 2 diabetes” (Nature Communications, 2022).
Values joined by “and” are separate entries in the source; they are usually repeats but may differ in a detail not shown here. Identical values can stand only once.

Key:
Body-mass index (BMI) = format: in vivo, human; details: mean
Source text: (§1) Exploratory outcomes included change from baseline in body weight, waist circumference, body-mass index (BMI) and change in homeostatic model assessment of β-cell function (HOMA-β) and insulin resistance (HOMA-IR).

human GLP-1 receptors = details: in vitro; cited from earlier work
Source text: (§2) IBI362 (also known as LY3305677) is a once-weekly synthetic peptide analogue of mammalian OXM, with a fatty-acyl moiety to extend the half-life[13].

mice = details: cited from earlier work
Source text: as §2

Body weight = format: in vivo, human; details: for Percent change from baseline to week 12 in body weight, single patients: each line a single patient; for Percent change from baseline in body weight, LS mean / Percent change from baseline in body weight, LS mean (SE) / Body weight (percent CFB): ETD versus placebo, LS mean (90% CI): MMRM; for Percent change from baseline in body weight, LS mean (SE) / Body weight (percent CFB): ETD versus placebo, LS mean (90% CI): week 12
Description: as §1
The analyses for change from baseline in HbA1c, FPG, post-MTT glucose AUC0–4 h and body weight were performed using the mixed-effect model for repeated measures (MMRM) with least-squares means and standard error provided. The MMRM included the corresponding baseline value, treatment, visit and treatment-by-visit as fixed effects and patient as a random effect. Mean change or mean percent change from baseline were analysed using a restricted maximum likelihood (REML)‐based repeated measures approach in combination with the Newton Raphson Algorithm. The fix effect of visit was fitted as a repeated effect and an unstructured covariance matrix was used. In case of non-converge, matrix like Variance Components and Compound Symmetry will be tested in a subsequent order until model‐convergence is achieved. The Kenward-Roger degree of freedom was used in estimating fixed effects. No missing data imputation was conducted. For HbA1c, FPG and body weight, point estimate of treatment difference versus placebo and 90% CI were provided for each IBI362 dose group and the dulaglutide group, with nominal p values.

[1] = Immunogenicity: anti-IBI362 antibody (ADA) and neutralizing antibody; format: in vivo, human
Source text: (§3) Standard non-compartmental pharmacokinetics methods were used to analyze IBI362 plasma concentration data using Pkanalix 2020R1 (Lixoft, Antony, France). Secondary efficacy outcomes included change from baseline to week 12 in HbA1c, fasting plasma glucose (FPG), fasting insulin levels, change from baseline to week 12 in post-mixed-meal tolerance test (post-MTT) glucose, insulin, C peptide, GLP-1 and OXM levels, as well as seven-point self-measured blood glucose (SMBG) profile.
Safety analyses were done in the safety population (defined as all patients who received at least one dose of the study treatment). Pharmacokinetic analyses were done in the pharmacokinetic population (defined as all patients who received at least one dose of IBI362 and had at least one valid plasma concentration assessment). Efficacy analyses were done in the efficacy population (defined as all patients who received at least one dose of the study treatment and had baseline and at least one post-baseline HbA1c assessment). Immunogenicity analyses were done in the immunogenicity population (defined as all patients who received at least one dose of the study treatment and had at least one post-baseline ADA result).
IBI362 Innovent Biologics (Suzhou) Co., Ltd. CIBI362A101
[…] Within 1 hour before D57 administration in Week 9; […]

[2] = system: Chinese patients with T2D; assay: Mixed-meal tolerance test (MTT) and fasting: OXM; format: in vivo, human; details: week 12; patients receiving IBI362
Description: HbA1c (2200101, Bio-Rad, USA), blood glucose (05168791190, Roche Diagnostics, Germany), insulin (12017547122, Roche Diagnostics, Germany), C peptide (03184897190, Roche Diagnostics, Germany), total GLP-1 (GLP-1 [7–36] amide and its metabolite, GLP-1 [9–36] amide, 10-1278-01, Mercodia AB, Sweden) and OXM (AL-139, AnshLabs, USA) tests were performed according to the manufactures’ instruction manuals in a central laboratory (KingMed Diagnostics, Guangzhou, China). HbA1c was measured using a Bio-rad D-100 Haemoglobin Testing System (Bio-rad). Blood glucose was measured using a Roche Cobas c702 analyser (Roche Diagnostics). Insulin and C peptide were measured using a Roche […] analyser (Roche Diagnostics). GLP-1 and OXM were measured using a Tecan Infinite M Plex microplate reader (TECAN).
as §3, with “profile. […]” for “profile.”
bag is added and mixed well. The time is counted from the first bite of eating. […]

Molecule: CC(C)C[C@H](NC(=O)[C@H](CC(C)C)NC(=O)[C@H](Cc1c[nH]c2ccccc12)NC(=O)[C@H](CCC(=O)O)NC(=O)[C@@H](NC(=O)[C@H](Cc1ccccc1)NC(=O)[C@H](CCC(=O)O)NC(=O)[C@H](CCCCNC(=O)COCCOCCNC(=O)COCCOCCNC(=O)CC[C@H](NC(=O)CCCCCCCCCCCCCCCCCCC(=O)O)C(=O)O)NC(=O)[C@H](C)NC(=O)[C@H](CCCCN)NC(=O)[C@H](CCCCN)NC(=O)[C@H](CCC(=O)O)NC(=O)[C@H](CC(=O)O)NC(=O)[C@H](CC(C)C)NC(=O)[C@H](Cc1ccc(O)cc1)NC(=O)[C@H](CCCCN)NC(=O)[C@H](CO)NC(=O)[C@H](Cc1ccc(O)cc1)NC(=O)[C@H](CC(=O)O)NC(=O)[C@H](CO)NC(=O)[C@@H](NC(=O)[C@H](Cc1ccccc1)NC(=O)[C@@H](NC(=O)CNC(=O)[C@H](CCC(N)=O)NC(=O)C(C)(C)NC(=O)[C@@H](N)Cc1c[nH]cn1)[C@@H](C)O)[C@@H](C)O)C(C)C)C(=O)N[C@@H](CCC(=O)O)C(=O)NCC(=O)NCC(=O)N1CCC[C@H]1C(=O)N[C@@H](CO)C(=O)N[C@@H](CO)C(=O)NCC(N)=O [IBI362]
- Change from baseline to week 12 in BMI (Body-mass index (BMI); IBI362 3.0 mg): -0.38 kg/m2
- Change from baseline to week 12 in BMI (Body-mass index (BMI); IBI362 4.5 mg): -1.25 kg/m2
- Change from baseline to week 12 in BMI (Body-mass index (BMI); IBI362 6.0 mg): -1.36 kg/m2
- binding (human GLP-1 receptors): potently bound
- body weight (mice; both Gcgr KO and Glp1r KO settings): decreased body weight
- energy expenditure (mice; mice): increased energy expenditure
- glucose control (mice; mice): improved glucose control
- body weight reductions from baseline to week 12 (up to) (Body weight; across IBI362 cohorts): up to 5.4%
- Percent change from baseline to week 12 in body weight, single patients (Body weight; 3.0 mg cohort): -0.9% and -2.2% and 0.6% and -1.0% and 0.0% and -5.1%
- Percent change from baseline to week 12 in body weight, single patients (Body weight; 4.5 mg cohort): -15.9% and -3.7% and 1.3% and -1.6% and -6.0%
- Percent change from baseline in body weight, LS mean (Body weight; week 4, 3.0 mg cohort, n=8): 0.1%
- Percent change from baseline in body weight, LS mean (Body weight; week 4, 4.5 mg cohort, n=8): -1.1%
- Percent change from baseline in body weight, LS mean (Body weight; week 4, 6.0 mg cohort, n=8): -1.7%
- Percent change from baseline in body weight, LS mean (Body weight; week 8, 3.0 mg cohort, n=8): -0.2%
- Percent change from baseline in body weight, LS mean (Body weight; week 8, 4.5 mg cohort, n=8): -2.1%
- Percent change from baseline in body weight, LS mean (Body weight; week 8, 6.0 mg cohort, n=8): -3.3%
- Percent change from baseline in body weight, LS mean (SE) (Body weight; 3.0 mg cohort, n=8): −0.9 (1.3) % and −0.9%
- Body weight (percent CFB): ETD versus placebo, LS mean (90% CI) (Body weight; 3.0 mg cohort): 0.1 ( −2.6, 2.8) %
- Percent change from baseline in body weight, LS mean (SE) (Body weight; 4.5 mg cohort, n=8): -5.0%
- Body weight (percent CFB): ETD versus placebo, LS mean (90% CI) (Body weight; 4.5 mg cohort): −4.0 (−6.7, −1.2) % and −4.0%
- Percent change from baseline in body weight, LS mean (SE) (Body weight; 6.0 mg cohort, n=8): -5.4%
- Body weight (percent CFB): ETD versus placebo, LS mean (90% CI) (Body weight; 6.0 mg cohort): −4.4 (−7.0, −1.7) % and −4.4%
- patients who developed anti-IBI362 antibody ([1]; all IBI362 cohorts, n=24 (four patients)): 16.7%
- neutralizing antibodies ([1]; post-baseline samples): No neutralizing antibodies were detected
- post-MTT OXM excursion [2]: markedly suppressed

Molecule: Dulaglutide: open-label active reference, subcutaneously once weekly at a fixed dose of 1.5 mg [reference compound]
- Change from baseline to week 12 in BMI (Body-mass index (BMI); Dulaglutide group): -0.19 kg/m2
- Percent change from baseline to week 12 in body weight, single patients (Body weight; 1.5 mg once weekly): 1.8% and -0.6% and 0.5% and 1.3% and -0.126% and -7.2%
- Percent change from baseline in body weight, LS mean (Body weight; week 4, 1.5 mg once weekly, n=6): -0.2%
- Percent change from baseline in body weight, LS mean (Body weight; week 8, 1.5 mg once weekly, n=6): -0.8%
- Percent change from baseline in body weight, LS mean (SE) (Body weight; 1.5 mg once weekly, n=6): −0.9 (1.4) % and -0.9%
- Percent change from baseline in body weight, LS mean (SE) (Body weight; 1.5 mg once weekly, n=6, listed as dulaglutide): −0.9%
- Body weight (percent CFB): ETD versus placebo, LS mean (90% CI) (Body weight; 1.5 mg once weekly): 0.2 ( −2.8, 3.1) %
